The subject of test [1] is tilapia Oreochromis sp. larvae. The test can be described thus: Growth stimulation of tilapia larvae by immersion. The format is in vivo. Particulars: immersion 100 μg/L, one hour twice a week, three weeks. Here is the method:
(§1) Growth stimulation experiments on tilapia Oreochromis sp. larvae were performed evaluating groups of 100 larvae with 0.01 g average, using the peptidic GHS analogs, in a 100 μg/L concentration, twice a week using an immersion time of one hour.

Test [2] has as its system Post-larvae of Litopenaeus vanamei. Nature of the test: Growth stimulation in shrimps by dietary supplementation. The format is in vivo. The note with it: compound at 1% in post-larvae crustacean diet. The method, then:
The peptidic GHS analogs were included at 1% in a post-larvae crustacean diet. Post-larvae of Litopenaeus vanamei were fed with the aforementioned diet in parallel with a control group with 1% BSA addition. The effect was measured with an optical micrometer and weighing the animals in a 0.1 mg precision scale.

Test [3] deals with Litopenaeus vanamei post-larvae. Nature of the test: Growth of shrimp post-larvae fed Artemia-bioencapsulated compounds. The format is in vivo. The note with it: Artemia bioencapsulated (10 mh/L, one hour), fed four times a day for one month. Here is the method: The peptidic GHS analogs were bioencapsulated in Artemia to be fed to Litopenaeus vanamei post-larvae. For the encapsulation the compounds were added in a 10 mh/L left for an hour, harvested and washed. The animals were fed four times a day for one month while the control group was fed with BSA encapsulated Artemia The effect was measured with an optical micrometer and weighing the animals in a 0.1 mg precision scale.

The subject of test [4] is lysozyme. The test can be described thus: Lysozyme levels in tilapia larvae treated by immersion. The format is in vivo, Oreochromis sp. The note with it: immersion 100 μg/L. Here is the method:
as §1
During this experiment lysozyme levels were also monitored and an increase of this immunity marker was obtained in the treated animals as shown in table 8.

The test system of test [5] is Litopenaeus vanamei. Nature of the test: Growing of shrimp larvae by dipping in solution of the compounds. The note with it: four dips of one hour every three days, 0.1 g/L. The format is in vivo. Here is the method: Shrimp larvae were subjected two four dips, for one hour every three days with different peptidic GHS analogs at 0.1 g/L. The control group was subjected to the same frequency of dipping with 1 mg/L BSA.

In test [6] the test system is PC12 cells. The format is cell-based. Here is the method:
PC12 cells were stored in 75 cm^2 culture flasks on DMEM containing 5% bovine foetal serum and 10% horse serum, with 50 μg/ml gentamicin. Cells were incubated at 37° C. in 5% CO2. To induce differentiation cells were transferred at a density of 1×10^4 to polylysine covered 96 well plates in NGF supplemented DMEM media for 7 days, with medium replacement every 2-3 days. After differentiation cells were incubated with peptidic GHS analog compounds, at different concentrations for 72 h. Cell survival and proliferation was determined using the Promega non-radioactive cytotoxicity proliferation assay, Cell Titer 96, based in the conversion of 3-(4,5-dimethylthiazole-2-yl)-2,5-diphenyltetrazolium bromide (MTT) in to a spectrophotometrically detectable product. After deprivation of NGF medium is removed and 15 μl of the DMEM dissolved dye is added, after 4 hours of 37° C. incubation 100 μl of the stopping solution is added and absorbance is measured at 570 nm

Test [7] concerns tilapias. Nature of the test: Growth acceleration on juvenile tilapias treated intraperitoneally. The format is in vivo. The note with it: juvenile tilapia, ip 0.1 μg/g twice a week, three weeks. The method, then: The compounds were dissolved in a sodium phosphate (PBS) buffer solution and injected twice a week, during three weeks at 0.1 μg/g of humid fish weight (gbw). Compounds were applied individually to a group of 10 male tilapias with an average weight of 60.41±10.36 g and a control group with an average weight of 60.58±19.67 g was receiving PBS only as a control, measuring the average weight every week, all animals in the experiment were labelled with microchips (Stoelting Co. Wood Dale, USA.). for proper identification.

In test [8] the test system is IGF-I mRNA. The test can be described thus: IGF-I mRNA in liver and GH level of intraperitoneally injected tilapias. The format is in vivo, tilapia. Particulars: liver of intraperitoneally injected tilapias. Here is the method: IGF-I mRNa was determined in the liver of intraperitoneally injected tilapias monitoring also the GH level time course, showing the peptidic GHS analog compounds as able to stimulate in fish the GH levels in the bloodstream and at incrementing the IGF-I mRNA levels after the injection of the compounds as shown in table 4.

For test [9], the system named is primary cultures of granular cerebellum cells. The format is cell-based, Wistar rats. The method, then: Primary cultures of granular cerebellum cells were obtained from 7-9 days Wistar rats. After a rapid dissection, rat cerebellums were submerged in a cold solution and meningeal membranes were removed, each organ was transferred to a 2-3 ml fresh medium solution and finely sliced. Cells were dissociated using a Pasteur pipette and filtered through a nylon […] membrane (Falcon, Franklin Lakes, N.J.). The number of viable cells was determined by cell counting in a hematocytometer with tripan blue as a marker. Cells were cultured on polylysine covered 96 well plates at a density of 6250 cells in […] final volume. Cultures were kept at 37° C. in 5%. CO2 after 24 h, 10 μM of cytosine arabinofuranose (AraC; Sigma) was added to inhibit the proliferation of non-neuronal cells. The capacity of neural damage prevention was tested adding 500 μM hydrogen peroxide in different concentrations of peptidic GHS analog compounds, Cell survival was determined using the Promega non-radioactive cytotoxicity proliferation assay, Cell Titer 96 (Promega).

The mark [10] stands for this setting: differentiated PC12 cells, 72 h incubation, MTT, read-out: IC50 during the NGF deprivation induced neuronal death.
The mark [11] stands for this setting: 500 μM hydrogen peroxide, rat cerebellum granular cells, read-out: IC50 during the induced neuronal damage by Hydrogen Peroxide addition to a primary culture of neurons.

Read-outs that look alike come from different tables or passages of the source. Where no end group is shown, it is not given here.

“HCKFDLDWH [Compound A223, L-amino acid peptide with internal side-chain cycle, SEC; ID NO: 3]”: the “Weight Inc. (%), control group growing = 100%” value (from here on “Weight Inc. (%)”) in test [1] was 102.0%; in test [5] it was 120.0%; in test [7] it was 105.0%. Moreover, the entries for the “Size Inc. (%), control group growing = 100%” value (shortened to “Size Inc. (%)”) in [2], in test [3] and in [5] were 131.6%, 132.0% and 110.9%, respectively. For the same sequence, in test [4], the “Lysozyme levels of the treated animals relative to the control group” value is listed as 1.52. Moreover, the IC50 (commonly the midpoint of a concentration-inhibition curve) is 3.12 µM in test [6] (setting [10]) and 2.47 µM in test [9] (setting [11]). Also, in [8], the “Normalized IGF-I mRNA levels to a non related synthetic peptide control group” value is 1.40.
For “HGSKFDLEFG [Compound A222, L-amino acid peptide with internal side-chain cycle, SEC; ID NO: 2]”, the “Weight Inc. (%)” value was 96.0% in test [1], 121.0% in test [5] and 96.2% in [7]. The “Size Inc. (%)” value stood at 131.0% in test [2], 130.3% in test [3] and 112.2% in test [5]. The “Lysozyme levels of the treated animals relative to the control group” value in test [4] stood at 1.43. The results for the IC50 in [6] (setting [10]) and in test [9] (setting [11]) were 2.03 µM and 1.3 µM, respectively. Besides, the “Normalized IGF-I mRNA levels to a non related synthetic peptide control group” value in [8] is 1.115.
In the case of HKGIDSPEQH [Compound A232], the “Weight Inc. (%)” value in [1] turned out to be 148.3%; in test [5] it was 132.8%; in test [7], 160.1%. Moreover, the “Size Inc. (%)” value in [2] turned out to be 139.7%; in [3], 139.6%; in test [5], 123.0%. Also, in [4], the “Lysozyme levels of the treated animals relative to the control group” value was 2.41. Besides, the IC50 in test [6] (setting [10]) was determined as 4.89 µM; in [9] (setting [11]), 3.28 µM. Besides, the “Normalized IGF-I mRNA levels to a non related synthetic peptide control group” value in [8] is 1.23.
As to “HSKGYDLDH [Compound A227, L-amino acid peptide with internal side-chain cycle, SEC; ID NO: 7]”, the “Weight Inc. (%)” value stood at 140.6% in [1], 128.6% in test [5] and 139.9% in test [7]. The results for the “Size Inc. (%)” value in test [2], in [3] and in [5] were 139.0%, 140.0% and 118.5%, respectively. Moreover, in [4], the “Lysozyme levels of the treated animals relative to the control group” value came out at 1.52. Also, the IC50 in [6] (setting [10]) came to 3.06 µM; in [9] (setting [11]), 2.26 µM. Further, in [8], the “Normalized IGF-I mRNA levels to a non related synthetic peptide control group” value amounted to 1.28.
“SSDFKLYWG [Compound A224, L-amino acid peptide with internal side-chain cycle, SEC; ID NO: 4]”: the “Weight Inc. (%)” value in [1] was found to be 130.0%; in test [5] it was 127.0%; in [7] it was 132.7%. Besides, the “Size Inc. (%)” value in [2] is reported as 131.2%; in test [3], 130.0%; in test [5], 116.0%. Also, the “Lysozyme levels of the treated animals relative to the control group” value in [4] was determined as 1.37. Further, the IC50 worked out at 2.37 µM in test [6] (setting [10]) and 3.2 µM in test [9] (setting [11]). Moreover, the “Normalized IGF-I mRNA levels to a non related synthetic peptide control group” value in test [8] was 1.41.
For the sequence STDFKPFAI [Compound A226, STDFKPFAI], the “Weight Inc. (%)” value is reported as 120.4% in test [1], 120.1% in test [5] and 122.4% in [7]. The “Size Inc. (%)” value is 130.4% in test [2], 132.0% in test [3] and 112.2% in test [5]. For the same sequence, the “Lysozyme levels of the treated animals relative to the control group” value in test [4] is 1.17. Further, the values for the IC50 in test [6] (72 h) and in [9] were 4.87 µM and 3.58 µM, respectively. Also, in [8], the “Normalized IGF-I mRNA levels to a non related synthetic peptide control group” value was found to be 1.13.
